Assay results from article PMC9933482 (ACS Omega, 2023).
Converted amounts (≈) assume the structure as drawn. “Also recorded” adds a separate entry of the source.

How the values were obtained:
[1] = tested on: MCF-7 cell line; experiment: MTT cytotoxicity assay, MCF-7; type: cell-based, human; details: for IC50: Homo sapiens, MCF7, 24 h, read-out: IC50 in μg/mL MCF-7, MTT, 24 h treatment
[2] = tested on: HePG-2 cell line; experiment: MTT cytotoxicity assay, HePG-2; type: cell-based, human; details: for IC50: Homo sapiens, HepG2, 24 h, read-out: IC50 in μg/mL HePG-2, MTT, 24 h treatment
[3] = tested on: human lung fibroblast cell line WI38; experiment: MTT cell viability, normal lung fibroblast WI38; type: cell-based; details: WI-38, read-out: IC50 in μg/mL WI38
[4] = molecular target: human carbonic anhydrase IX (hCAIX) (Homo sapiens, UniProt Q16790); experiment: biochemical
[5] = molecular target: recombinant human carbonic anhydrase XII (hCAXII) (Homo sapiens, UniProt O43570); experiment: hCAXII enzyme inhibition assay; type: biochemical
Sequence of recombinant human carbonic anhydrase XII (hCAXII) (O43570 25-291): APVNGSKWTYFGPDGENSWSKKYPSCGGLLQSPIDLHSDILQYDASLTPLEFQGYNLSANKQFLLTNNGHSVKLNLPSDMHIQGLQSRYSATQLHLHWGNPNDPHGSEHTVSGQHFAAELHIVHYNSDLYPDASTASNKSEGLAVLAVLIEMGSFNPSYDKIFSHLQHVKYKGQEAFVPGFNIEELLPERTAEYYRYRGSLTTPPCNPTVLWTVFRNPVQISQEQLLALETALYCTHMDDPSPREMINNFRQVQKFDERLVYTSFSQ

## CCOC(=O)C1CSc2[nH]c(=O)sc2C1c1cn(-c2ccccc2)nc1-c1ccccc1 (centres unmarked) [compound 7f, Ethyl 7-(1,3-Diphenyl-1H-pyrazol-4-yl)-2-oxo-3,5,6,7-tetrahydro-2H-thiopyrano[2,3-d]thiazole-6-carboxylate]
[1]
  anticancer/cytotoxic activity in words, MCF-7: moderate anticancer activity
  IC50: 15.9 ± 2.3 µg/mL (≈ 34.3 µM)
[2]
  anticancer/cytotoxic activity in words, HePG-2: moderate anticancer activity
  IC50: 13.4 ± 1.2 µg/mL (≈ 28.8 µM)
[3]
  IC50: 44.5 ± 4.5 µg/mL (≈ 96 µM)
[4]
  IC50: 928 ± 45 nM
[5]
  IC50: 1050 ± 57 nM

## N#CC1CSc2[nH]c(=O)sc2C1c1cn(-c2ccccc2)nc1-c1ccccc1 (centres unmarked) [compound 7a, 7-(1,3-Diphenyl-1H-pyrazol-4-yl)-2-oxo-3,5,6,7-tetrahydro-2H-thiopyrano-[2,3-d]thiazole-6-carbonitrile]
[1]
  IC50: 23.8 ± 1.9 µg/mL (≈ 57 µM)
[2]
  IC50: 26.8 ± 3.3 µg/mL (≈ 64.4 µM)
[3]
  IC50: 54.6 ± 3.5 µg/mL (≈ 131 µM)

## N#CC1CSc2[nH]c(=O)sc2C1c1cn(-c2ccccc2)nc1-c1ccc(Cl)cc1 (centres unmarked) [compound 7d, 7-(3-(4-Chlorophenyl)-1-phenyl-1H-pyrazol-4-yl)-2-oxo-3,5,6,7-tetra-hydro-2H-thiopyrano[2,3-d]thiazole-6-carbonitrile]
[1]
  anticancer/cytotoxic activity in words, MCF-7: weak activity
  IC50: 67.3 ± 3.7 µg/mL (≈ 149 µM)
[2]
  anticancer/cytotoxic activity in words, HePG-2: weak activity
  IC50: 73 ± 4.3 µg/mL (≈ 162 µM)
[3]
  IC50: 39.5 ± 1.7 µg/mL (≈ 87.6 µM)

## Cc1ccc(-c2nn(-c3ccccc3)cc2C2c3sc(=O)[nH]c3SCC2C#N)cc1 (centres unmarked) [compound 7b, 7-(3-(4-Methylphenyl)-1-phenyl-1H-pyrazol-4-yl)-2-oxo-3,5,6,7-tetra-hydro-2H-thiopyrano-[2,3-d]thiazole-6-carbonitrile]
[1]
  IC50: 35 ± 2.3 µg/mL (≈ 81.4 µM)
[2]
  IC50: 30.4 ± 1.1 µg/mL (≈ 70.7 µM)
[3]
  IC50: 41.4 ± 1.7 µg/mL (≈ 96 µM)

## COc1ccc(-c2nn(-c3ccccc3)cc2C2c3sc(=O)[nH]c3SC3C(=O)N(c4ccccc4)C(=O)C32)cc1 (centres unmarked) [compound 5e, 8-(3-(4-Methoxyphenyl)-1-phenyl-1H-pyrazol-4-yl)-6-phenyl-7a,8-dihydro-pyrrolo-[3′,4′:5,6]thiopyrano[2,3-d]thiazole-2,5,7(3H,4aH,6H)-trione]
[1]
  IC50: 35.7 ± 72 µg/mL (≈ 63 µM)
[2]
  IC50: 30.7 ± 0.3 µg/mL (≈ 54.2 µM)
[3]
  IC50: 51.7 ± 3.7 µg/mL (≈ 91.2 µM)

## O=C1C2Sc3[nH]c(=O)sc3C(c3cn(-c4ccccc4)nc3-c3ccc(Br)cc3)C2C(=O)N1c1ccccc1 (centres unmarked) [compound 5g, 8-(3-(4-Bromophenyl)-1-phenyl-1H-pyrazol-4-yl)-6-phenyl-7a,8-dihydro-pyrrolo[3′,4′:5,6]-thiopyrano[2,3-d]thiazole-2,5,7(3H,4aH,6H)-trione]
[1]
  anticancer/cytotoxic activity in words, MCF-7: weakly active
  IC50: 42.9 ± 2.7 µg/mL (≈ 69.7 µM)
[2]
  anticancer/cytotoxic activity in words, HePG-2: weakly active
  IC50: 45 ± 3 µg/mL (≈ 73 µM)
[3]
  IC50: 24.9 ± 2 µg/mL (≈ 40.4 µM)

## O=C1NC(=S)C(=Cc2cn(-c3ccccc3)nc2-c2ccc(Br)cc2)S1 [compound 3e, 5-[(3-(4-Bromophenyl)-1-phenyl-1H-pyrazol-4-yl)methylene]-4-thioxo-2-thiazolidinone]
[1]
  anticancer/cytotoxic activity in words, MCF-7: most potent cytotoxic agent in this series; also recorded: strong anticancer activity
  IC50: 11.2 ± 1.5 µg/mL (≈ 25.2 µM)
[2]
  anticancer/cytotoxic activity in words, HePG-2: most potent cytotoxic agent in this series; also recorded: strong cytotoxic activity
  IC50: 7.83 ± 1.5 µg/mL (≈ 17.7 µM)
[2]; MTT, 24 h treatment
  IC50 in μg/mL HePG-2: 10.66 ± 1.0 µg/mL (≈ 24.1 µM)
[3]
  IC50: 41.5 ± 2.9 µg/mL (≈ 93.8 µM)
[4]
  IC50: 349 ± 11 nM
[5]
  IC50: 556 ± 16 nM

## CCOC(=O)C1CSc2[nH]c(=O)sc2C1c1cn(-c2ccccc2)nc1-c1ccc(C)cc1 (centres unmarked) [compound 7g, Ethyl 7-(3-(4-Methylphenyl)-1-phenyl-1H-pyrazol-4-yl)-2-oxo-3,5,6,7-tetrahydro-2H-thiopyrano[2,3-d]thiazole-6-carboxylate]
[1]
  anticancer/cytotoxic activity in words, MCF-7: strong cytotoxicity
  IC50: 12.3 ± 2.4 µg/mL (≈ 25.8 µM)
[2]
  anticancer/cytotoxic activity in words, HePG-2: strong cytotoxicity
  IC50: 11.9 ± 2.7 µg/mL (≈ 24.9 µM)
[3]
  IC50: 30.3 ± 1.7 µg/mL (≈ 63.5 µM)
[4]
  IC50: 390 ± 19 nM
[5]
  IC50: 566 ± 31 nM

## O=C1C2Sc3[nH]c(=O)sc3C(c3cn(-c4ccccc4)nc3-c3ccccc3)C2C(=O)N1c1ccccc1 (centres unmarked) [compound 5a, 8-(1,3-Diphenyl-1H-pyrazol-4-yl)-6-phenyl-7a,8-dihydropyrrolo[3′,4′:5,6]-thiopyrano[2,3-d]thiazole-2,5,7(3H,4aH,6H)-trione]
[1]
  IC50: 30.3 ± 0.4 µg/mL (≈ 56.5 µM)
[2]
  IC50: 38.4 ± 2.1 µg/mL (≈ 71.6 µM)
[3]
  IC50: 65.7 ± 1.1 µg/mL (≈ 122 µM)

## Cc1ccc(-c2nn(-c3ccccc3)cc2C2c3sc(=O)[nH]c3SC3C(=O)N(c4ccccc4)C(=O)C32)cc1 (centres unmarked) [compound 5d, 8-(3-(4-Methylphenyl)-1-phenyl-1H-pyrazol-4-yl)-6-phenyl-7a,8-dihydro-pyrrolo[3′,4′:5,6]-thiopyrano[2,3-d]thiazole-2,5,7(3H,4aH,6H)-trione]
[1]
  anticancer/cytotoxic activity in words, MCF-7: good cytotoxic effect
  IC50: 25.4 ± 2.1 µg/mL (≈ 46.1 µM)
[1]; MTT, 24 h treatment
  IC50 in μg/mL MCF-7: 25.95 ± 2.8 µg/mL (≈ 47.1 µM)
[2]
  anticancer/cytotoxic activity in words, HePG-2: good cytotoxic effect
  IC50: 21.3 ± 1.8 µg/mL (≈ 38.7 µM)
[3]
  IC50: 49.9 ± 3.4 µg/mL (≈ 90.5 µM)
[4]
  IC50: 336 ± 16 nM
[5]
  IC50: 604 ± 33 nM

## CCOC(=O)C1CSc2[nH]c(=O)sc2C1c1cn(-c2ccccc2)nc1-c1ccc(Br)cc1 (centres unmarked) [compound 7j, Ethyl 7-(3-(4-Bromophenyl)-1-phenyl-1H-pyrazol-4-yl)-2-oxo-3,5,6,7-tetra-hydro-2H-thiopyrano[2,3-d]thiazole-6-carboxylate]
[1]
  anticancer/cytotoxic activity in words, MCF-7: strong cytotoxicity
  IC50: 11.8 ± 4 µg/mL (≈ 21.8 µM)
[2]
  anticancer/cytotoxic activity in words, HePG-2: strong cytotoxicity
  IC50: 10.3 ± 4.8 µg/mL (≈ 18.9 µM)
[3]
  IC50: 33.8 ± 2.5 µg/mL (≈ 62.2 µM)
[4]
  IC50: 239 ± 30 nM
[5]
  IC50: 589 ± 30 nM

## COc1ccc(-c2nn(-c3ccccc3)cc2C=C2SC(=O)NC2=S)cc1 [compound 3c, 5-[(3-(4-Methoxyphenyl)-1-phenyl-1H-pyrazol-4-yl)methylene]-4-thioxo-2-thiazolidinone]
[1]
  anticancer/cytotoxic activity in words, MCF-7: moderate activity
  IC50: 37.6 ± 3.4 µg/mL (≈ 95.5 µM)
[2]
  anticancer/cytotoxic activity in words, HePG-2: moderate activity
  IC50: 31.2 ± 2.6 µg/mL (≈ 79.3 µM)
[3]
  IC50: 64.5 ± 3.8 µg/mL (≈ 164 µM)

## O=C1C2Sc3[nH]c(=O)sc3C(c3cn(-c4ccccc4)nc3-c3ccc(Cl)cc3)C2C(=O)N1c1ccccc1 (centres unmarked) [compound 5f, 8-(3-(4-Chlorophenyl)-1-phenyl-1H-pyrazol-4-yl)-6-phenyl-7a,8-dihydro-pyrrolo[3′,4′:5,6]-thiopyrano[2,3-d]thiazole-2,5,7(3H,4aH,6H)-trione]
[1]
  anticancer/cytotoxic activity in words, MCF-7: almost moderate activity
  IC50: 25.4 ± 2.1 µg/mL (≈ 44.5 µM)
[2]
  anticancer/cytotoxic activity in words, HePG-2: almost moderate activity
  IC50: 29 ± 2.1 µg/mL (≈ 50.8 µM)
[3]
  IC50: 43 ± 3.1 µg/mL (≈ 75.3 µM)

## Cc1ccc(-c2nn(-c3ccccc3)cc2C=C2SC(=O)NC2=S)cc1 [compound 3b, 5-[(3-(4-Methylphenyl)-1-phenyl-1H-pyrazol-4-yl)methylene]-4-thioxo-2-thiazolidinone]
[1]
  anticancer/cytotoxic activity in words, MCF-7: weak activity
  IC50: 56.3 ± 3.4 µg/mL (≈ 149 µM)
[2]
  anticancer/cytotoxic activity in words, HePG-2: weak activity
  IC50: 62.2 ± 3.2 µg/mL (≈ 165 µM)
[3]
  IC50: 25.3 ± 2.1 µg/mL (≈ 66.9 µM)

## CCOC(=O)C1CSc2[nH]c(=O)sc2C1c1cn(-c2ccccc2)nc1-c1ccc(OC)cc1 (centres unmarked) [compound 7h, Ethyl 7-(3-(4-Methoxyphenyl)-1-phenyl-1H-pyrazol-4-yl)-2-oxo-3,5,6,7-tetrahydro-2H-thiopyrano[2,3-d]thiazole-6-carboxylate]
[1]
  anticancer/cytotoxic activity in words, MCF-7: strong cytotoxicity
  IC50: 11.4 ± 1.5 µg/mL (≈ 23 µM)
[2]
  anticancer/cytotoxic activity in words, HePG-2: strong cytotoxicity
  IC50: 12.2 ± 1.1 µg/mL (≈ 24.7 µM)
[3]
  IC50: 25.3 ± 2.2 µg/mL (≈ 51.3 µM)
[4]
  IC50: 133 ± 6 nM
[5]
  IC50: 409 ± 22 nM

## COc1ccc(-c2nn(-c3ccccc3)cc2C2c3sc(=O)[nH]c3SCC2C#N)cc1 (centres unmarked) [7c, 7-(3-(4-Methoxyphenyl)-1-phenyl-1H-pyrazol-4-yl)-2-oxo-3,5,6,7-tetra-hydro-2H-thiopyrano[2,3-d]thiazole-6-carbonitrile]
[1]
  IC50: 29.4 ± 1.1 µg/mL (≈ 65.9 µM)
[2]
  IC50: 24.1 ± 2.9 µg/mL (≈ 54 µM)
[3]
  IC50: 51.9 ± 3.4 µg/mL (≈ 116 µM)

## O=C1NC(=S)C(=Cc2cn(-c3ccccc3)nc2-c2ccc(Cl)cc2)S1 [compound 3d, 5-[(3-(4-Chlorophenyl)-1-phenyl-1H-pyrazol-4-yl)methylene]-4-thioxo-2-thiazolidinone]
[1]
  anticancer/cytotoxic activity in words, MCF-7: moderate activity
  IC50: 30.8 ± 2.2 µg/mL (≈ 77.5 µM)
[2]
  anticancer/cytotoxic activity in words, HePG-2: moderate activity
  IC50: 38.2 ± 2.7 µg/mL (≈ 96 µM)
[3]
  IC50: 71.2 ± 4.2 µg/mL (≈ 179 µM)

## O=C1NC(=S)C(=Cc2cn(-c3ccccc3)nc2-c2ccccc2)S1 [compound 3a, 5-[(1,3-Diphenyl-1H-pyrazol-4-yl)methylene]-4-thioxo-2-thiazolidinone]
[1]
  anticancer/cytotoxic activity in words, MCF-7: weak activity
  IC50: 52.1 ± 3.1 µg/mL (≈ 143 µM)
[2]
  anticancer/cytotoxic activity in words, HePG-2: weak activity
  IC50: 65.8 ± 3.3 µg/mL (≈ 181 µM)
[3]
  IC50: 28.2 ± 2.3 µg/mL (≈ 77.6 µM)

## COc1cccc2c1C(=O)c1c(O)c3c(c(O)c1C2=O)C[C@@](O)(C(=O)CO)C[C@@H]3O[C@H]1C[C@H](N)[C@H](O)[C@H](C)O1 [doxorubicin, reference compound]
[3]
  IC50: 8.87 ± 0.6 µg/mL (≈ 16.3 µM)
